According to patent publication US20240197715A1, “PHARMACEUTICAL COMBINATIONS AND USES THEREOF” (NOVARTIS AG, priority 2022, published 2024):

Experiments:
[1] = system: SW48 colorectal carcinoma cells; assay: SW48 xenograft efficacy in nude mice; format: in vivo; settings: for effect on tumor growth: irinotecan 60 mg/kg i.v. weekly
Description: All animals were allowed to adapt for 7 days and housed in a pathogen-controlled environment (5 mice/Type III cage) with access to food and water ad libitum and were identified with transponders.
5.0×10^6 SW48 colorectal carcinoma cells were implanted subcutaneously in nude mice (Charles River, Germany). Treatment was initiated when tumors reached 150-200 mm^3 volume. Efficacy studies and tumor response were measured as above.

[2] = system: T84 (CCL-248, ATCC) MSS colorectal carcinoma xenografts; assay: T84 MSS CRC xenograft efficacy in nude mice; format: in vivo; settings: Compound A 120 mg/kg p.o.; irinotecan 5 mg/kg i.v. once a week
Description: T84 (CCL-248, ATCC) is MSS colorectal carcinoma (CRC). It was cultured in DMEM (#1-26F01-I, AMIMED) supplemented with 10% FCS (#2-0-1F30-I, BioConcept), 4 mM L-glutamine (#5-10K50-H, BioConcept) and 1 mM Sodium pyruvate (#5-60F00-H, BioConcept). Cells were passaged by washing first with Dulbecco's PBS without Ca^2+/Mg^2+ (#3-05F29-1, AMIMED), trypsinising cells with Trypsin 0.05% in PBS with EDTA (#5-51F00-H, AMIMED), centrifuging in the respective culture media, and splitting cells into fresh media at a ratio of 1:8, 2 times per week.
Athymic nude mice (Charles River, Germany) were allowed to adapt for 7 days upon arrival at the animal facility and housed in a pathogen-controlled environment (5 mice/Type III cage) with access to food and water ad libitum. […]
Tumor volumes (TVol), determined from caliper measurements (using the formula I*w2*TT/6) were measured two times per week. Tumor response was quantified by the change in tumor volume (endpoint minus starting value in mm^3) as the T/C. In the case of a tumor regression or to assess the percentage of change in TVol, the tumor response was quantified by the percentage of regression of the starting TVol. The body-weight (BW) of the animal was measured three times per week allowing calculation at any particular time-point relative to the day of initiation of treatment (day 0) of the percentage change in BW (4% BW).

[3] = Example 12, Compound A 40 mg/kg p.o. qd, trametinib 0.3 mg/kg p.o. qd
[4] = Example 18, Compound A 20 mg/kg p.o. qd

CCc1c(N2CCN(C(=O)c3ncnc(C)c3O)CC2)c(=O)n2nc(C3=CCOCC3)nc2n1CC(=O)Nc1ccc(C(F)(F)F)cc1Cl [Compound A]
duration of response / relapse [1, 3]: for 30 days followed by relapse in all tumor-bearing mice | tumor regression [1, 3]: 40% | tumor regression ([1]; Example 15, Compound A 20 mg/kg p.o. qd, BAY-1895344 50 mg/kg p.o. twice a day, 3 days on/4 off): 15% | duration of response / relapse ([1]; Example 15, Compound A 20 mg/kg, BAY-1895344 50 mg/kg): for 30 days followed by relapse in all tumor-bearing mice | effect on tumor growth [1, 4]: stable disease | duration of response / relapse ([1]; Example 18, Compound A 20 mg/kg, irinotecan 60 mg/kg): for 21 days followed by a relapse in all tumor-bearing mice | effect on tumor growth of parental T84 tumors [2]: no effect

CCc1c2c(nc3ccc(OC(=O)N4CCC(N5CCCCC5)CC4)cc13)-c1cc3c(c(=O)n1C2)COC(=O)[C@]3(O)CC [irinotecan]
effect on tumor growth [1, 4]: no effect | effect on tumor growth of parental T84 tumors [2]: delay of the tumor growth
